Source: patent US20190300851A1, “HUMAN STEM CELL DERIVED ENDOTHELIAL CELLS, ENDOTHELIAL-HEPATOCYTE CO-CULTURE SYSTEM AND USES THEREOF” (AGENCY FOR SCIENCE, TECHNOLOGY AND RESEARCH, priority 2016, published 2019)
Entries after “also recorded” stand apart in the source; their conditions may differ.

Columns and labels:
[1] = system: IL-1β-stimulated hPSC-HEPs; experiment: Inflammatory marker gene expression (qPCR) in IL-1β-stimulated hPSC-HEPs; assay type: cell-based, human; conditions: 10 μM, 48 hours
Procedure: (§1) Hepatocytes were generated from hPSCs by a growth factor-based differentiation protocol described in our previous protocol. After 20 days of differentiation, the cells were harvested using a serial 2× TrypLE Express treatment and further dissociated into single cells by passing them through a 40 μm cell strainer. These single cells were then seeded at 2.5×10^5 cells per well in a Collagen I (50 μg/ml, Biolaboratories, Cat. No.: 354236)-coated dishes. Attachment and recovery were promoted by seeding them in step IV differentiation medium with Hepatocyte growth factor (R&D, Cat. No.: 294-HGN-005), Follistatin (R&D, Cat. No.: FS-288), Oncostatin (R&D, Cat. No.: 295-OM-010) and Y-27632 (Rock Inhibitor) to prevent anoikis in the freshly harvested hPSC-HEPs. Next day, media was changed to Williams E medium (Sigma, Cat. No.: W1878) without serum and cells were serum starved overnight prior to nutraceutical treatments. Nutraceuticals quercetin (Sigma, Cat. No.: Q4951) and genistein (Sigma, Cat. No.: G6649) were administered at a single dose of 10 μM. Hepatocytes in this work were derived from H9-ESCs. In hepatic characterization, primary human hepatocytes (PHH) and HUH7 cells were used as positive controls, while HeLa cells were used as negative control.
Total RNA was prepared using RNeasy mini kit (Qiagen, cat. no. 74104). […]

[2] = system: IL-8; experiment: Endothelial-hepatocyte co-culture: IL-8 protein; assay type: cell-based, human; conditions: co-culture of hPSC-ECs with hPSC-HEPs, 10 μM for 48 hours prior to IL-1β stimulation
Procedure: (§2) H9-ESCs were used to generate the ECs and hepatocytes for co-culture experiments and assays with nutraceuticals. Both cell types were derived from an isogenic source of hPSC to ensure a robust endothelial-hepatic model without confounding phenotypic differences due to genetic variations. The IBIDI μ-slide 2×9 wells were used for creating the co-culture setup. Each minor well was first coated with Collagen I and then a total of 2.5×10^5 hPSC-ECs and hPSC-HEPs were seeded in individual wells in a 1:1 ratio within a major well to allow equivalent contribution of paracrine factors between the two cell types (FIG. 5A). After cell attachment, the media was changed to 1:1 William's E and EGM-2 without serum, to be commonly shared by hPSC-ECs and hPSC-HEPs in a major well. Upon overnight serum starvation, the co-cultures were pre-conditioned with 10 μM of Quercetin or Genistein for 48 hours prior to IL-1β stimulation.
(§3) Conditioned EGM-2 media were collected, and concentration of human IL-8 was determined using the human IL-8 ELISA kit (Invitrogen, cat. no. KHC0081) according to manufacturer's instructions.

[3] = system: IL-8; experiment: IL-8 ELISA of conditioned media of IL-1β-stimulated hPSC-ECs, monoculture; assay type: cell-based, human; conditions: 10 μM, 48 hours, IL-1β-stimulated hPSC-ECs, monoculture
Procedure: (§4) After the hPSC colonies attached, they were first induced to drive early mesoderm differentiation for 36 hours, using a chemically defined media, supplemented with human recombinant FGF2 (20 ng/ml, R&D Systems, cat. no. 233-FB), LY294002 (10 μM, Sigma, cat. no. L9908), and human recombinant BMP4 (10 ng/ml, R&D Systems, cat. no. 314-BP). Lateral plate mesoderm was further induced for another 3.5 days in media supplemented with human recombinant FGF2 (20 ng/ml) and BMP4 (50 ng/ml), with media change every 2 days. On day 5, the lateral plate mesoderm population was trypsinized using TrypLE Express (Gibco, cat. no. 12604) and plated on matrigel-coated plates in the same basal media supplemented with FGF2 (4 ng/ml), SB431542 (10 μM, Sigma, cat. no. S4317) and VEGF (50 ng/ml, R&D Systems, cat. no. 293-VE) with media change every 2-3 days. On day 10, PECAM1-expressing endothelial cells were sorted using fluorescence-activated cell sorting with PECAM1 antibody (Biolegend, cat. no. 303110). The PECAM1+ cells were plated at a density of 5×10^4/cm^2 onto collagen I-coated plate in commercial media EGM-2 (Lonza, cat. no. CC-3162). For every 500 ml EGM-2 media used, the following supplements are included: human epidermal growth factor (0.5 ml); VEGF, 0.5 ml; R3-insulin growth factor-1, 0.5 ml; Ascorbic acid, 0.5 ml; Hydrocortisone, 0.2 ml; hFibroblast growth factor-beta, 2.0 ml; FBS, 10.0 ml; Gentamicin Amphotericin, 0.5 ml. hPSC-ECs were passaged using TrypLE Express when they reached more than 75% confluency. Fresh complete EGM-2 media were replaced every 2-3 days. All experiments were performed on cells up to passage 10. hPSC-ECs derived from three different cell lines, H9-ESCs (FIGS. 1-5), IMR90-iPSCs and BJ-iPSCs (FIGS. 7-8), were functionally characterized and used in inflammatory activation assays. In EC marker and functional characterization, human coronary artery ECs (HCAECs) were used as positive control, while HeLa cells and human hepatocellular carcinoma cells (HUH7) were used as negative controls.
as §3

[4] = plasma; cited from earlier work
[5] = system: NFκB; experiment: Endothelial-hepatocyte co-culture: NFκB nuclear translocation in IL-1β-stimulated hPSC-ECs; assay type: cell-based, human; conditions: co-culture of hPSC-ECs with hPSC-HEPs, 10 μM for 48 hours prior to IL-1β stimulation
Procedure: as §2
Cells were fixed with 4% paraformaldehyde (Nacalai Tesque, cat. no. 09154-14) and permeabilized by 0.5% Triton X-100 (Acros Organics, cat. no. 215680010) in PBS with Ca^2+ and MG^2+ at room temperature. Blocking was performed using PBS with 10% serum overnight at 4° C. Cells were incubated with the respective primary antibody diluted in 0.1% serum containing PBS for 1 hour and secondary antibodies in 0.1% serum containing PBS for another hour. […]

[6] = system: NFκB; experiment: hPSC-HEP conditioned media on IL-1β-stimulated hPSC-ECs: NFκB nuclear translocation; assay type: cell-based, human; conditions: hPSC-HEP conditioned media (10 μM, 48 hour) on IL-1β-stimulated hPSC-ECs
Procedure: (§5) HPSC-HEPs (1.25×10^5 cells/cm^2) were cultured for 48 hour in 1:1 William's E medium+EGM-2 without serum containing 10 μM Quercetin or 10 μM Genistein. Conditioned media from hPSC-HEPs treated with quercetin or genistein were collected, and added to hPSC-ECs (that were serum starved overnight) along with 20 ng/ml of IL-13 for determination of NFκB nuclear colocalization (at 1 hour), gene expression profile of inflammatory markers (at 6 hour), and IL-8 protein levels (1 day) upon inflammation.
(§6) Cells were fixed with 4% paraformaldehyde (Nacalai Tesque, cat. no. 09154-14) and permeabilized by 0.5% Triton X-100 (Acros Organics, cat. no. 215680010) in PBS with Ca^2+ and MG^2+ at room temperature. Blocking was performed using PBS with 10% serum overnight at 4° C. Cells were incubated with the respective primary antibody diluted in 0.1% serum containing PBS for 1 hour and secondary antibodies in 0.1% serum containing PBS for another hour. Washes were performed twice using 0.1% serum containing PBS. DAPI (1 μg/ml, Thermo, cat. no. D3571) was used to stain the cell nucleus for 10 min.

[7] = system: IL-1β-stimulated hPSC-ECs; experiment: Inflammatory marker gene expression (qPCR) in IL-1β-stimulated hPSC-ECs, monoculture; assay type: cell-based; conditions: 10 μM, up to 72 hours, IL-1β-stimulated hPSC-ECs, monoculture
Procedure: as §4
Total RNA was prepared using RNeasy mini kit (Qiagen, cat. no. 74104). Each RNA sample (250 ng) was reverse transcribed into cDNA using Maxima First Strand cDNA Synthesis kit (Thermo, cat. no. K1641). qPCR was performed on a StepOnePlus Real-Time PCR system (Thermo) using FAST SYBR green master mix (Thermo, cat. no. 4385616). Expression levels were normalized to the housekeeping gene glyceraldehyde 3-phosphate dehydrogenase (GAPDH).

[8] = system: primary rat hepatocytes; experiment: LC-MS metabolic profile of nutraceuticals by primary rat hepatocytes; assay type: in vitro ADME; conditions: 10 μM, LC-MS
Procedure: The metabolic potential of the hPSC-HEPs and primary rat hepatocytes (freshly isolated according to our previously established protocol) were tested by exposing them to nutraceuticals quercetin and genistein (10 μM) over different durations. Internal standard (Emodin, 10 ng/ml) was added to the conditioned media. The SPE column (Phenomenex, Strata C18-E, 55 μm, 70 Å) was conditioned by washing with 1 ml methanol and then 2 ml DI water. Conditioned media was added into the column and 1.5 mL 30% methanol was added to elute the impurity such as phenol red in the medium. 0.1% Formic acid methanol was added to the column to elute all the metabolites and internal standard out to a 15 mL tube. Liquid in the 15 mL tube was dried under N2 in a sample concentrator with 30° C. heater. After drying the sample, 100 μL of 0.1% formic acid methanol was added to the 15 mL tube and vortex for 30 s and transfer to another 1.5 mL tube. The samples were then centrifuged at 13,000 rpm for 10 min at 4° C. and 10 μl of the supernatant was injected into LC-MS. High performance liquid chromatography combined with electrospray ionization ion trap time-of-flight multistage mass spectrometry (HPLC-DAD-ESI-ITTOF-MSn) analyses were performed with a Shimadzu LCMS-IT-TOF instrument, which was composed of two LC-20AD pumps, an SIL-20AC autosampler, a CTO-20A column oven, a CBM-20A system controller, an ESI ion source, and an IT-TOF mass spectrometer (Shimadzu, Kyoto, Japan).

[9] = system: co-culture of hPSC-ECs and hPSC-HEPs; experiment: LC-MS metabolite profile in co-cultured media of hPSC-ECs and hPSC-HEPs; assay type: in vitro ADME, human; conditions: endothelial-hepatic co-culture, LC-MS
Procedure: as §2
(§7) The metabolic potential of the hPSC-HEPs and primary rat hepatocytes (freshly isolated according to our previously established protocol) were tested by exposing them to nutraceuticals quercetin and genistein (10 μM) over different durations. Internal standard (Emodin, 10 ng/ml) was added to the conditioned media. The SPE column (Phenomenex, Strata C18-E, 55 μm, 70 Å) was conditioned by washing with 1 ml methanol and then 2 ml DI water. […]

[10] = system: NFκB; experiment: NFκB nuclear translocation (immunostaining) in IL-1β-stimulated hPSC-ECs, monoculture; assay type: cell-based, human; conditions: 10 μM, IL-1β-stimulated hPSC-ECs, monoculture
Procedure: as §4, §6

[11] = system: hPSC-HEPs; experiment: LC-MS metabolic profile of nutraceuticals by hPSC-HEPs; assay type: in vitro ADME, human; conditions: 10 μM, LC-MS
Procedure: as §1
as §7, with “water. Conditioned media was added into the column and 1.5 mL 30% methanol was added to elute the impurity such as phenol red in the medium. 0.1% Formic acid methanol was added to the column to elute all the metabolites and internal standard out to a 15 mL tube. Liquid in the 15 mL tube was dried under N2 in a sample concentrator with 30° C. heater.” for “water.”

[12] = system: IL-8; experiment: IL-8 ELISA of conditioned media of IL-1β-stimulated hPSC-HEPs; assay type: cell-based, human; conditions: 10 μM, 48 hours
Procedure: as §1, with “In hepatic characterization, primary human hepatocytes (PHH) and HUH7 cells were used as positive controls, while HeLa cells were used as negative control.” left out
as §3

[13] = system: hPSC-HEP conditioned media treated on hPSC-ECs; experiment: LC-MS metabolite profile in hPSC-HEP conditioned media treated on hPSC-ECs; assay type: in vitro ADME, human; conditions: conditioned media setting
Procedure: as §5
as §7, with “water. Conditioned media was added into the column and 1.5 mL 30% methanol was added to elute the impurity such as phenol red in the medium. 0.1% Formic acid methanol was added to the column to elute all the metabolites and internal standard out to a 15 mL tube. Liquid in the 15 mL tube was dried under N2 in a sample concentrator with 30° C. heater.” for “water.”

## O=c1c(-c2ccc(O)cc2)coc2cc(O)cc(O)c12 [genistein]
[1]
  inflammatory gene (marker) expression: significant reduction; also recorded: decreased most of the inflammatory marker expression
[2]
  IL-8 protein levels / secretion: remarkably decreased; also recorded: significantly reduced
[3]
  IL-8 protein levels from conditioned media: no significant reduction
[4]
  plasma concentrations: 30 to 16340 nM
[5]
  NFκB nuclear translocation (colocalization): significant suppression; also recorded: significantly decreased
[6]
  NFκB nuclear translocation: did not seem to inhibit
[7]
  gene expression of inflammatory markers versus IL-1β stimulated levels: did not show substantial reduction
[8]; freshly isolated primary rat hepatocytes
  level of parent nutraceutical over time: declined over time
[8]; primary rat hepatocytes
  formation of metabolites: giving rise to metabolites
[9]
  metabolites detectable in medium: detectable levels of various metabolites
[10]
  NFκB nuclear translocation levels: remained elevated
[11]; hPSC-HEPs
  levels of metabolites over time: increased over time; also recorded: increased with time; also recorded: giving rise to metabolites
[11]; in the presence of hPSC-HEPs
  level of parent nutraceutical over time: gradually declined over time
[12]
  production of IL-8 protein from conditioned media: significantly suppressed
[13]
  metabolites detectable in medium: but not in the conditioned media setting
